Drawing on the supplement of paper PMC10307832, this text covers relative viability for five cell lines.

Holding throughout (test): relative viability (nuclei count vs DMSO), 5 days (fraction); higher = more cells survive
Compound in experiment [1]: Cc1cc(Nc2cc(N3CCN(C)CC3)nc(Sc3ccc(NC(=O)C4CC4)cc3)n2)n[nH]1 [Tozasertib] + C[C@]1(O)C[C@@H](c2nc(-c3ccc4ccc(-c5ccccc5)nc4c3)c3c(N)nccn32)C1 [Linsitinib] (partner 1 µM)
In short, it runs like this:
(§1)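 Lung cancer cell lines were pin-tool dosed in 1536-well plates on the day after seeding, with either a lone drug or a fixed anchor-drug dose plus five library-drug doses (not always all listed) in √10 steps. Nuclei were counted on 4× images after 5 days. Relative viability is the ratio of treated-well to vehicle-well nuclei counts, with each value a median of duplicate plates.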

Compound in experiment [2]: Cc1cc(Nc2cc(N3CCN(C)CC3)nc(Sc3ccc(NC(=O)C4CC4)cc3)n2)n[nH]1 [Tozasertib] + N=C(N)NC(=N)NCCc1ccccc1 [Phenformin] (partner 250 µM)
In short, it runs like this:
as §1

Compound in experiment [3]: Cc1cc(Nc2cc(N3CCN(C)CC3)nc(Sc3ccc(NC(=O)C4CC4)cc3)n2)n[nH]1 [Tozasertib] + Nc1ncn([C@H]2C[C@H](O)[C@@H](CO)O2)c(=O)n1 [Decitabine] (partner 2 µM)
An outline of the steps: as §1

Compound in experiment [4]: Cc1cc(Nc2cc(N3CCN(C)CC3)nc(Sc3ccc(NC(=O)C4CC4)cc3)n2)n[nH]1 [Tozasertib] + CC(=O)Nc1cccc(-n2c(=O)n(C3CC3)c(=O)c3c(Nc4ccc(I)cc4F)n(C)c(=O)c(C)c32)c1 [Trametinib] (partner 0.02 µM)
An outline of the steps: as §1

Compound in experiment [5]: Cc1cc(Nc2cc(N3CCN(C)CC3)nc(Sc3ccc(NC(=O)C4CC4)cc3)n2)n[nH]1 [Tozasertib] + NC(=O)Nc1cc(-c2cccc(F)c2)sc1C(=O)N[C@H]1CCCNC1 [AZD7762] (partner 0.2 µM)
In short, it runs like this:
as §1

As to NCI-H2405, the relative viability in experiment [1] (first compound 0.004 µM) was found to be 1.03; in experiment [1] (first compound 0.01265 µM), 0.944; in experiment [1] (first compound 0.1265 µM), 0.962; in experiment [2] (first compound 0.004 µM) it was 0.392; in experiment [2] (first compound 0.01265 µM), 0.402; in experiment [2] (first compound 0.04 µM), 0.424. Also, the relative viability turned out to be 0.408 in experiment [2] (first compound 0.1265 µM); 0.721 in experiment [3] (first compound 0.004 µM); 0.699 in experiment [3] (first compound 0.01265 µM); 0.715 in experiment [3] (first compound 0.04 µM); 0.683 in experiment [3] (first compound 0.1265 µM); 0.649 in experiment [4] (first compound 0.004 µM). The relative viability in experiment [4] (first compound 0.01265 µM) was found to be 0.658; in experiment [4] (first compound 0.04 µM), 0.652; in experiment [4] (first compound 0.1265 µM), 0.611; in experiment [5] (first compound 0.004 µM), 0.753; in experiment [5] (first compound 0.04 µM), 0.612; in experiment [5] (first compound 0.1265 µM), 0.547.
For NCI-H3122, the relative viability was determined as 0.994 in experiment [1] (first compound 0.004 µM); 0.997 in experiment [1] (first compound 0.01265 µM); 0.962 in experiment [1] (first compound 0.04 µM); 1.05 in experiment [1] (first compound 0.1265 µM); 0.38 in experiment [2] (first compound 0.004 µM); 0.346 in experiment [2] (first compound 0.01265 µM). The relative viability came to 0.366 in experiment [2] (first compound 0.04 µM); 0.312 in experiment [2] (first compound 0.1265 µM); 0.444 in experiment [3] (first compound 0.004 µM); 0.356 in experiment [3] (first compound 0.01265 µM); 0.48 in experiment [3] (first compound 0.04 µM); 0.494 in experiment [3] (first compound 0.1265 µM). The relative viability in experiment [4] (first compound 0.004 µM) is 0.198; in experiment [4] (first compound 0.01265 µM), 0.244; in experiment [4] (first compound 0.04 µM), 0.239; in experiment [4] (first compound 0.1265 µM) it was 0.23; in experiment [5] (first compound 0.004 µM), 1; in experiment [5] (first compound 0.01265 µM), 0.952. Further, the relative viability was determined as 1.06 in experiment [5] (first compound 0.04 µM) and 1.07 in experiment [5] (first compound 0.1265 µM).
PC-3 [JPC-3]: the relative viability in experiment [1] (first compound 0.004 µM) stood at 0.902; in experiment [1] (first compound 0.01265 µM), 0.935; in experiment [1] (first compound 0.04 µM), 0.971; in experiment [1] (first compound 0.1265 µM), 0.972; in experiment [2] (first compound 0.004 µM), 0.377; in experiment [2] (first compound 0.01265 µM), 0.49. The relative viability was found to be 0.536 in experiment [2] (first compound 0.04 µM); 0.469 in experiment [2] (first compound 0.1265 µM); 0.808 in experiment [3] (first compound 0.004 µM); 0.889 in experiment [3] (first compound 0.01265 µM); 0.828 in experiment [3] (first compound 0.04 µM); 0.793 in experiment [3] (first compound 0.1265 µM). Moreover, the relative viability came out at 0.502 in experiment [4] (first compound 0.004 µM); 0.72 in experiment [4] (first compound 0.01265 µM); 0.762 in experiment [4] (first compound 0.04 µM); 0.715 in experiment [4] (first compound 0.1265 µM); 0.789 in experiment [5] (first compound 0.004 µM); 0.734 in experiment [5] (first compound 0.01265 µM). For the same cell line, the relative viability in experiment [5] (first compound 0.04 µM) is 0.774; in experiment [5] (first compound 0.1265 µM), 0.684.
As for PC-14, the relative viability worked out at 1.01 in experiment [1] (first compound 0.004 µM); 1 in experiment [1] (first compound 0.01265 µM); 1.03 in experiment [1] (first compound 0.04 µM); 0.828 in experiment [1] (first compound 0.1265 µM); 0.248 in experiment [2] (first compound 0.004 µM); 0.359 in experiment [2] (first compound 0.01265 µM). Also, the relative viability was 0.556 in experiment [2] (first compound 0.04 µM); 0.257 in experiment [2] (first compound 0.1265 µM); 0.21 in experiment [3] (first compound 0.01265 µM); 0.184 in experiment [3] (first compound 0.04 µM); 0.128 in experiment [3] (first compound 0.1265 µM); 0.767 in experiment [4] (first compound 0.01265 µM). Further, the relative viability in experiment [4] (first compound 0.04 µM) stood at 0.994; in experiment [4] (first compound 0.1265 µM) it was 0.595; in experiment [5] (first compound 0.004 µM) it was 0.31; in experiment [5] (first compound 0.01265 µM) it was 0.236; in experiment [5] (first compound 0.04 µM), 0.336; in experiment [5] (first compound 0.1265 µM), 0.213.
In the case of RERF-LC-KJ, the relative viability in experiment [1] (first compound 0.004 µM) was 0.876; in experiment [1] (first compound 0.01265 µM), 0.861; in experiment [1] (first compound 0.04 µM), 0.907; in experiment [1] (first compound 0.1265 µM), 0.777; in experiment [2] (first compound 0.004 µM), 0.443; in experiment [2] (first compound 0.01265 µM), 0.425. Also, the relative viability in experiment [2] (first compound 0.04 µM) is 0.485; in experiment [2] (first compound 0.1265 µM), 0.435; in experiment [3] (first compound 0.004 µM), 0.532; in experiment [3] (first compound 0.01265 µM), 0.592; in experiment [3] (first compound 0.04 µM), 0.645; in experiment [3] (first compound 0.1265 µM) it was 0.508. Moreover, the relative viability turned out to be 0.807 in experiment [4] (first compound 0.004 µM); 0.841 in experiment [4] (first compound 0.01265 µM); 0.862 in experiment [4] (first compound 0.04 µM); 1.08 in experiment [5] (first compound 0.004 µM); 1.06 in experiment [5] (first compound 0.04 µM); 0.371 in experiment [5] (first compound 0.1265 µM).
